Assay results from patent US8557796B2, “Substituted 1-oxa-2,8-diaza-spiro [4,5] dec-2-ene derivatives and related treatment methods” (Gruenenthal GmbH, priority 2001, dated 2013).

Tested on: batrachotoxin (BTX) binding site (binding site 2) of the sodium channel
Test: Bond test on the sodium channel, binding site 2 (BTX bond), [3H]-batrachotoxinin A20 α-benzoate displacement
Conditions: rat cerebrocortex synaptosomes

Compound	BTX bond, 10 μM, % inhibition [%]	BTX bond, 10 μM, % inhibition (10 µM) [%]
O=C(NC1CCCC1OCc1ccccc1)C1=NOC2(CCN(S(=O)(=O)c3ccc(Cl)s3)CC2)C1 (stereo not drawn) [Example 191]	75	–
O=C(C1=NOC2(CCN(S(=O)(=O)c3ccc(OC(F)(F)F)cc3)CC2)C1)N(CCc1ccccc1)Cc1ccccc1 [Example 97, 8-(4-trifluoromethoxy-benzenesulphonyl)-1-oxa-2,8-diaza-spiro[4,5]dec-2-ene-3-carboxylic acid benzyl-phenethyl-amide]	79	–
O=C(C1=NOC2(CCN(S(=O)(=O)Cc3ccccc3)CC2)C1)N1CCN(Cc2ccc3ccccc3c2)CC1 [Example 6, (4-naphthalen-2-ylmethyl-piperazin-l-yl)-(8-phenylmethane-sulphonyl-1-oxa-2,8 diaza-spiro[4,5]dec-2-en-3-yl)-methanone]	49	–
O=C(NCc1cccs1)C1=NOC2(CCN(C(=O)c3cccc(Cl)c3F)CC2)C1 [Example 146, 8-(3-chloro-2-fluorobenzoyl)-1-oxa-2,8-diaza-spiro[4,5]dec-2-ene-3-carboxylic acid (thiophen-2-ylmethyl)-amide]	67	–
O=C(Nc1ccccc1)C1=NOC2(CCN(C(=O)c3ccc(Br)cc3)CC2)C1 [Example 181, 8-(4-bromo-benzoyl)-1-oxa-2,8-diaza-spiro[4,5]dec-2-ene-3-acarboxylic cid phenylamide]	50	–
O=C(NCc1ccc2c(c1)OCO2)C1=NOC2(CCN(S(=O)(=O)c3ccc(Cl)s3)CC2)C1 [Example 30, 8-(5-chloro-thiophene-2-sulphonyl)-1-oxa-2,8-diaza-spiro[4,5]dec-2-ene-3-carboxylic acid (benzo[1,3]dioxol-5-ylmethyl)-amide]	56	–
COc1ccc(S(=O)(=O)N2CCC3(CC2)CC(C(=O)NC2CCCC2OCc2ccccc2)=NO3)cc1 (stereo not drawn) [Example 121, 8-(4-methoxy-benzenesulphonyl)-1-oxa-2,8-diaza-spiro[4,5]dec-2-ene-3-carboxylic acid (2-benzyloxy-cyclopentyl)-amide]	–	42
O=C(NCc1cccs1)C1=NOC2(CCN(C(=O)c3cccc(Cl)c3)CC2)C1 [Example 208]	74	–
C=CCOC(=O)C(CC(=O)OC(C)(C)C)NC(=O)C1=NOC2(CCN(S(=O)(=O)c3cc(Cl)ccc3Cl)CC2)C1 (stereo not drawn) [Example 53]	47	–
O=C(NCc1ccccc1F)C1=NOC2(CCN(S(=O)(=O)c3ccc(F)cc3)CC2)C1 [Example 207, 8-(4-fluoro-benzenesulphonyl)-1-oxa-2,8-diaza-spiro[4,5]dec-2-ene-3-carboxylic acid 2 fluorobenzylamide]	56	–
O=C(NCc1cccs1)C1=NOC2(CCN(C(=O)c3ccc(F)c(Cl)c3)CC2)C1 [Example 184, 8-(3-chloro-4-fluorobenzoyl)-1-oxa-2,8-diaza-spiro[4,5]dec-2-ene-3-carboxylic acid (thiophen-2-ylmethyl)-amide]	73	–
O=C(C1=NOC2(CCN(S(=O)(=O)c3cccc(C(F)(F)F)c3)CC2)C1)N1CCN(CCCc2ccccc2)CC1 [Example 83, [4-(3-phenyl-propyl)-piperazin-1-yl]-[8-(3-trifluoromethyl-benzenesulphonyl)-1-oxa-2,8-diaza-spiro[4,5]dec-2-en-3-yl]-methanone]	72	–
Cc1ccccc1N1CCN(C(=O)C2=NOC3(CCN(S(=O)(=O)c4cccs4)CC3)C2)CC1 [Example 27, [8-(thiophene-2-sulphonyl)-1-oxa-2,8-diaza-spiro[4,5]dec-2-en-3-yl]-(4-o-tolyl-piperazin-1-yl)-methanone]	74	–
CCOC(=O)N1CCC(NC(=O)C2=NOC3(CCN(C(=O)c4ccc(Br)cc4)CC3)C2)CC1 [Example 62, 4-{[8-(4-bromo-benzoyl)-1-oxa-2,8-diaza-spiro[4,5]dec-2-ene-3-carbonyl]-amino)-piperidine-l-carboxylic acid ethyl ester]	49	–
COc1cc(OC)cc(N2CCN(C(=O)C3=NOC4(CCN(S(=O)(=O)c5ccc(Cl)s5)CC4)C3)CC2)c1 [Example 71, [8-(5-chloro-thiophene-2-sulphonyl)-1-oxa-2,8-diaza-spiro[4,5]dec-2-en-3-yl]-[4-(3,5-dimethoxy-phenyl)-piperazin-l-yl]-methanone]	54	–
CCOP(=O)(Cc1ccc(NC(=O)C2=NOC3(CCN(S(=O)(=O)Cc4ccccc4)CC3)C2)cc1)OCC [Example 2]	55	–
O=C(NCc1ccccc1)C1=NOC2(CCN(C(=O)c3cccc(SC(F)F)c3)CC2)C1 [Example 180, 8-(3-difluoromethylsulphanyl-benzoyl)-1-oxa-2,8-diaza-spiro[4,5]dec-2-ene-3-carboxylic acid benzylamide]	57	–

Compound	BTX bond, 10 μM, % inhibition [%]	BTX bond, 10 μM, % inhibition (10 µM) [%]
O=C(Cc1ccc(F)c(F)c1)N1CCN(C(=O)C2=NOC3(CCN(S(=O)(=O)c4cccc(C(F)(F)F)c4)CC3)C2)CC1 [Example 93]	52	–
O=C(NCCCc1ccccc1)C1=NOC2(CCN(S(=O)(=O)c3ccc(F)cc3)CC2)C1 [Example 193, 8-(4-fluoro-benzenesulphonyl)-1-oxa-2,8-diaza-spiro[4,5]dec-2-ene-3-carboxylic acid (3-phenyl-propyl)-amide]	66	–
O=C(NC1CCN(Cc2ccc3ccccc3c2)C1)C1=NOC2(CCN(S(=O)(=O)c3ccc(Cl)s3)CC2)C1 (stereo not drawn) [Example 50, 8-(5-chloro-thiophene-2-sulphonyl)-1-oxa-2,8-diaza-spiro[4,5]dec-2-ene-3 carboxylic acid (1-naphthalen-2-ylmethyl-pyrrolidin-3-yl)-amide]	87	–
O=C(NC1CCCC1)C1=NOC2(CCN(C(=O)c3cccnc3Oc3ccccc3)CC2)C1 [Example 153, 8-(2-phenoxy-pyridine-3-carbonyl)-1-oxa-2,8-diaza-spiro[4,5]dec-2-ene-3-carboxylic acid cyclopentylamide]	41	–
CC(=O)N1CCC2(CC1)CC(C(=O)NCc1ccccc1)=NO2 [Example 48, 8-acetyl-1-oxa-2,8-diaza-spiro[4,5]dec-2-ene-3-carboxylic acid benzylamide]	43	–
CC(C)CC(NC(=O)C1=NOC2(CCN(S(=O)(=O)c3cccc(C(F)(F)F)c3)CC2)C1)C(=O)OC(C)(C)C (stereo not drawn) [Example 214, 4-methyl-2-{[8-(3-trifluoromethyl-benzenesulphonyl)-1-oxa-2,8-diaza-spiro[4,5]dec-2-ene-3-carbonyl]-amino}-pentanoic acid tert-butyl ester]	61	–
Cc1ccc([N+](=O)[O-])cc1S(=O)(=O)N1CCC2(CC1)CC(C(=O)NCCN(C)C)=NO2 [Example 19, 8-(2-methyl-5-nitro-benzenesulphonyl)-1-oxa-2,8-diaza-spiro[4,5]dec-2-ene-3 carboxylic acid (2-dimethylamino-ethyl)-amide]	66	–
O=C(NCc1cccs1)C1=NOC2(CCN(C(=O)COc3cccc(Cl)c3)CC2)C1 [Example 96, 8-[2-(3-chloro-phenoxy)-acetyl]-1-oxa-2,8-diaza-spiro[4,5]dec-2-ene-3-carboxylic acid (thiophen-2-ylmethyl)-amide]	72	–
O=C(NCCN1CCCC1)C1=NOC2(CCN(S(=O)(=O)c3ccc(F)c(Cl)c3)CC2)C1 [Example 11]	69	–
COc1ccc(S(=O)(=O)N2CCC3(CC2)CC(C(=O)NC2CC2c2ccccc2)=NO3)cc1 (stereo not drawn) [Example 182, 8-(4-methoxy-benzenesulphonyl)-1-oxa-2,8-diaza-spiro[4,5]dec-2-ene-3-carboxylic acid (2-phenyl-cyclopropyl)-amide]	47	–
O=C(C1=NOC2(CCN(S(=O)(=O)c3cccs3)CC2)C1)N1CCN(C2CCCCCC2)CC1 [Example 3, (4-cycloheptyl-piperazin-l-yl)-[8-(thiophene-2-sulphonyl)-1-oxa-2,8-diaza-spiro [4,5]dec-2-en-3-yl]-methanone]	78	–
Cc1ccc(S(=O)(=O)N2CCC3(CC2)CC(C(=O)N(CCC#N)Cc2ccccc2)=NO3)cc1 [Example 28, 8-(toluene-4-sulphonyl)-1-oxa-2,8-diaza-spiro[4,5]dec-2-ene-3-carboxylic acid benzyl-(2-cyano-ethyl)-amide]	52	–
Cc1ccc(S(=O)(=O)N2CCC3(CC2)CC(C(=O)NC2CCCC2OCc2ccccc2)=NO3)cc1 (stereo not drawn) [Example 73, 8-(toluene-4-sulphonyl)-1-oxa-2,8-diaza-spiro[4,5]dec-2-ene-3-carboxylic acid (2-benzyloxy-cyclopentyl)-amide]	–	75
CC(NC(=O)C1=NOC2(CCN(S(=O)(=O)c3ccc(Cl)s3)CC2)C1)c1cccc2c1OCCO2 (stereo not drawn) [Example 140, 8-(5-chloro-thiophene-2-sulphonyl)-1-oxa-2,8-diaza-spiro[4,5]dec-2-ene-3-carboxylic acid [1-(2,3-dihydro-benzo[1,4]dioxin-5-yl)-ethyl]-amide]	60	–
Cc1ccc(S(=O)(=O)N2CCC3(CC2)CC(C(=O)N2CCN(C(C)c4ccccc4)CC2)=NO3)cc1 (stereo not drawn) [Example 32, [4-(1-phenyl-ethyl)-piperazin-l-yl]-[8-(toluene-4-sulphonyl)-1-oxa-2,8-diaza-spiro[4,5]dec-2-en-3-yl]-methanone]	66	–
O=C(NCc1cccs1)C1=NOC2(CCN(S(=O)(=O)c3ccc([N+](=O)[O-])cc3)CC2)C1 [Example 38, 8-(4-nitro-benzenesulphonyl)-1-oxa-2,8-diaza-spiro[4,5]dec-2-ene-3-carboxylic acid (thiophen-2-ylmethyl)-amide]	65	–
